Source: patent US20080051387A1, “TETRAHYDROPYRIDO[3,4-D]PYRIMIDINES AND RELATED ANALOGUES” (priority 2006, published 2008)

biological target: T1, chimeric human H3 receptor (Homo sapiens, UniProt Q9Y5N1); test: Chimeric human H3 receptor screening GTP binding assay (inhibition of histamine-stimulated GTP-gamma35S binding, Example 8); assay type: biochemical; settings: 1 h; assay described in Example 8; symbol "!" in column headed Ki; read-out: Ki ("!": percent inhibition of agonist-induced GTP-gammaS binding to H3)
T1 construct: rat Galpha-i2 (Gnai2, rat); made in house; host or cells: Sf9 insect cells (baculovirus); P2 membranes
T1 sequence (Q9Y5N1 with tags, fused parts or gaps): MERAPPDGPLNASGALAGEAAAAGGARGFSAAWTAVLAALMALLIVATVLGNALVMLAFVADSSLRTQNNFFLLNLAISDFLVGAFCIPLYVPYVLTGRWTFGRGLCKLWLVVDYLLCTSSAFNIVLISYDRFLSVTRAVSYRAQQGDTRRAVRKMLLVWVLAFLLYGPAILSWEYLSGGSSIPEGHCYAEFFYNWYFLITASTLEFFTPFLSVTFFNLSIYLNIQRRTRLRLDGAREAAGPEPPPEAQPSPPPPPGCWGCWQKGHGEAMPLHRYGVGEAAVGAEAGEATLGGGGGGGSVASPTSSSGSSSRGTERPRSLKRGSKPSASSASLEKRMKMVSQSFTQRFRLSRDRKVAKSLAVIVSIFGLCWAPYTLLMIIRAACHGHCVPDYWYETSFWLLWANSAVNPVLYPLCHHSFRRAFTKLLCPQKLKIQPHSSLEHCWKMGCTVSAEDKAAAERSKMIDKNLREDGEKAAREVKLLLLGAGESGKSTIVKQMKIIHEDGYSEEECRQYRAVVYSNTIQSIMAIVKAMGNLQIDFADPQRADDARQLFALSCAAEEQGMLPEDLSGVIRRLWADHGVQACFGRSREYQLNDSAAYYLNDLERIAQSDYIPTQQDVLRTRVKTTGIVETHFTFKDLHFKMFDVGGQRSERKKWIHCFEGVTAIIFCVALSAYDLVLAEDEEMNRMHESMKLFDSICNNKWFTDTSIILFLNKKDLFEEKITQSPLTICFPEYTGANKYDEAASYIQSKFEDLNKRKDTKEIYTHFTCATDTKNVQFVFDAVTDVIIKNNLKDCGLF
Procedure, shortened: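 Compound tested at 4 μM against 1 μM histamine stimulation; 125 pM GTP-gamma35S binding measured by filtration and scintillation after 60 min at room temperature. Membranes from Sf9 cells expressing chimeric human H3 plus G-protein subunits, in Tris pH 7.4/NaCl/MgCl2/GDP buffer; values are % inhibition after nonspecific subtraction.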

| Compound | inhibition at 4 µM |
| --- | --- |
| O=C(c1ccc(F)c(Br)c1)N1CCc2cnc(N3CCN(C4CCC4)CC3)nc2CC1 [Compound 401, 7-(3-bromo-4-fluorobenzoyl)-2-(4-cyclobutylpiperazin-1-yl)-6,7,8,9-tetrahydro-5H-pyrimido[4,5-d]azepine] | ≥ 90% |
| O=C(/C=C/c1cccc2ccccc12)N1CCc2cnc(N3CCN(C4CCC4)CC3)nc2CC1 [Compound 578, 2-(4-cyclobutylpiperazin-1-yl)-7-[(2E)-3-(1-naphthyl)prop-2-enoyl]-6,7,8,9-tetrahydro-5H-pyrimido[4,5-d]azepine] | ≥ 90% |
| Cc1ccc(C(=O)N2CCc3cnc(N4CCN(C5CCC5)CC4)nc3CC2)cc1N [Compound 532, 5-{[2-(4-cyclobutylpiperazin-1-yl)-5,6,8,9-tetrahydro-7H-pyrimido[4,5-d]azepin-7-yl]carbonyl}-2-methylaniline] | ≥ 90% |
| O=C(/C=C/c1ccc(OCc2ccc(F)cc2)cc1)N1CCc2cnc(N3CCN(C4CCC4)CC3)nc2CC1 [Compound 562, 2-(4-cyclobutylpiperazin-1-yl)-7-[(2E)-3-{4-[(4-fluorobenzyl)oxy]phenyl}prop-2-enoyl]-6,7,8,9-tetrahydro-5H-pyrimido[4,5-d]azepine] | ≥ 90% |
| O=C(c1c(Cl)cccc1Cl)N1CCc2cnc(N3CCN(C4CCC4)CC3)nc2CC1 [Compound 435, 2-(4-cyclobutylpiperazin-1-yl)-7-(2,6-dichlorobenzoyl)-6,7,8,9-tetrahydro-5H-pyrimido[4,5-d]azepine] | ≥ 90% |
| CCOc1ccc(C(=O)N2CCc3cnc(N4CCN(C5CCC5)CC4)nc3CC2)cc1OCC [Compound 383, 2-(4-cyclobutylpiperazin-1-yl)-7-(3,4-diethoxybenzoyl)-6,7,8,9-tetrahydro-5H-pyrimido[4,5-d]azepine] | ≥ 90% |
| O=C(c1ccccc1Cl)N1CCc2cnc(N3CCN(C4CCC4)CC3)nc2CC1 [Compound 436, 7-(2-chlorobenzoyl)-2-(4-cyclobutylpiperazin-1-yl)-6,7,8,9-tetrahydro-5H-pyrimido[4,5-d]azepine] | ≥ 90% |
| CCOc1ccccc1/C=C/C(=O)N1CCc2cnc(N3CCN(C4CCC4)CC3)nc2CC1 [Compound 569, 2-(4-cyclobutylpiperazin-1-yl)-7-[(2E)-3-(2-ethoxyphenyl)prop-2-enoyl]-6,7,8,9-tetrahydro-5H-pyrimido[4,5-d]azepine] | ≥ 90% |
| O=C(/C=C/c1ccc2c(c1)OCO2)N1CCc2cnc(N3CCN(C4CCC4)CC3)nc2CC1 [Compound 567, 7-[(2E)-3-(1,3-benzodioxol-5-yl)prop-2-enoyl]-2-(4-cyclobutylpiperazin-1-yl)-6,7,8,9-tetrahydro-5H-pyrimido[4,5-d]azepine] | ≥ 90% |
| CC(C)Oc1ncccc1C(=O)N1CCc2cnc(N3CCN(C4CCC4)CC3)nc2CC1 [Compound 546, 2-(4-cyclobutylpiperazin-1-yl)-7-[(2-isopropoxypyridin-3-yl)carbonyl]-6,7,8,9-tetrahydro-5H-pyrimido[4,5-d]azepine] | ≥ 90% |
| O=C(c1c(-c2ccccc2)nnc2ccccc12)N1CCc2cnc(N3CCN(C4CCC4)CC3)nc2CC1 [Compound 510, 2-(4-cyclobutylpiperazin-1-yl)-7-[(3-phenylcinnolin-4-yl)carbonyl]-6,7,8,9-tetrahydro-5H-pyrimido[4,5-d]azepine] | ≥ 90% |
| COc1ccc(OC)c(Sc2ncccc2C(=O)N2CCc3cnc(N4CCN(C5CCC5)CC4)nc3CC2)c1 [Compound 500, 2-(4-cyclobutylpiperazin-1-yl)-7-({2-[(2,5-dimethoxyphenyl)thio]pyridin-3-yl}carbonyl)-6,7,8,9-tetrahydro-5H-pyrimido[4,5-d]azepine] | ≥ 90% |

same assay, conditions: 1 h; assay of Example 8; symbol "!" in column headed Ki; read-out: percent inhibition of agonist-induced GTP-gammaS binding to H3

| Compound | inhibition at 4 µM |
| --- | --- |
| CCCC(C)C(=O)N1CCc2cnc(N3CCN(C4CCC4)CC3)nc2CC1 (stereo not shown) [Compound 224, 2-(4-cyclobutylpiperazin-1-yl)-7-(2-methylpentanoyl)-6,7,8,9-tetrahydro-5H-pyrimido[4,5-d]azepine] | ≥ 90% |
| O=C(CC1CCCC1)N1CCc2cnc(N3CCN(C4CCC4)CC3)nc2CC1 [Compound 210, 2-(4-cyclobutylpiperazin-1-yl)-7-(cyclopentylacetyl)-6,7,8,9-tetrahydro-5H-pyrimido[4,5-d]azepine] | ≥ 90% |
| Cc1ccc(CN2CCc3cnc(N4CCN(C5CCC5)CC4)nc3CC2)cc1C [Compound 257, 2-(4-cyclobutylpiperazin-1-yl)-7-(3,4-dimethylbenzyl)-6,7,8,9-tetrahydro-5H-pyrimido[4,5-d]azepine] | ≥ 90% |
| O=C(C1c2ccccc2Oc2ccccc21)N1CCc2cnc(N3CCN(C4CCC4)CC3)nc2CC1 [Compound 358, 2-(4-cyclobutylpiperazin-1-yl)-7-(9H-xanthen-9-ylcarbonyl)-6,7,8,9-tetrahydro-5H-pyrimido[4,5-d]azepine] | ≥ 90% |
| Cc1cccc(OCC(=O)N2CCc3cnc(N4CCN(C5CCC5)CC4)nc3CC2)c1 [Compound 322, 2-(4-cyclobutylpiperazin-1-yl)-7-[(3-methylphenoxy)acetyl]-6,7,8,9-tetrahydro-5H-pyrimido[4,5-d]azepine] | ≥ 90% |
| CC(Oc1ccc(Cl)cc1Cl)C(=O)N1CCc2cnc(N3CCN(C4CCC4)CC3)nc2CC1 (stereo not shown) [Compound 338, 2-(4-cyclobutylpiperazin-1-yl)-7-[2-(2,4-dichlorophenoxy)propanoyl]-6,7,8,9-tetrahydro-5H-pyrimido[4,5-d]azepine] | ≥ 90% |
| Cc1ccccc1C(=O)N1CCc2cnc(N3CCN(C4CCC4)CC3)nc2CC1 [Compound 189, 2-(4-cyclobutylpiperazin-1-yl)-7-(2-methylbenzoyl)-6,7,8,9-tetrahydro-5H-pyrimido[4,5-d]azepine] | ≥ 90% |
| O=C(c1ccccc1F)N1CCc2cnc(N3CCN(C4CCC4)CC3)nc2CC1 [Compound 195, 2-(4-cyclobutylpiperazin-1-yl)-7-(2-fluorobenzoyl)-6,7,8,9-tetrahydro-5H-pyrimido[4,5-d]azepine] | ≥ 90% |

same assay, conditions: symbol ! in Ki; test compound 4 μM, 1 μM histamine; read-out: percent inhibition of agonist-induced GTP-gammaS binding to H3

| Compound | inhibition at 4 µM |
| --- | --- |
| Fc1ccccc1CN1CCc2nc(N3CCN(C4CCC4)CC3)ncc2C1 [Compound 611, 2-(4-cyclobutylpiperazin-1-yl)-6-(2-fluorobenzyl)-5,6,7,8-tetrahydropyrido[4,3-d]pyrimidine] | ≥ 90% |
| c1ccc(CN2CCc3ncnc(N4CCN(C5CCCC5)CC4)c3C2)cc1 [Compound 141, 6-benzyl-4-(4-cyclopentylpiperazin-1-yl)-5,6,7,8-tetrahydropyrido[4,3-d]pyrimidine] | ≥ 90% |
| COc1ccc(OC)c(CN2CCc3nc(N4CCN(C5CCC5)CC4)ncc3C2)c1 [Compound 641, 2-(4-cyclobutylpiperazin-1-yl)-6-(2,5-dimethoxybenzyl)-5,6,7,8-tetrahydropyrido[4,3-d]pyrimidine] | ≥ 90% |
| c1ccc2ncc(CN3CCc4nc(N5CCN(C6CCC6)CC5)ncc4C3)cc2c1 [Compound 618, 2-(4-cyclobutylpiperazin-1-yl)-6-(quinolin-3-ylmethyl)-5,6,7,8-tetrahydropyrido[4,3-d]pyrimidine] | ≥ 90% |
| CCCC(C)C(=O)N1CCc2c(ncnc2N2CCN(C3CCC3)CC2)C1 (stereo not shown) [Compound 61, 4-(4-cyclobutylpiperazin-1-yl)-7-(2-methylpentanoyl)-5,6,7,8-tetrahydropyrido[3,4-d]pyrimidine] | ≥ 90% |
| O=C(c1ccno1)N1CCc2c(ncnc2N2CCN(C3CCC3)CC2)C1 [Compound 36, 4-(4-cyclobutylpiperazin-1-yl)-7-(isoxazol-5-ylcarbonyl)-5,6,7,8-tetrahydropyrido[3,4-d]pyrimidine] | ≥ 90% |
| CCCCCCN1CCc2ncnc(N3CCN(C4CCC4)CC3)c2CC1 [Compound 165, 4-(4-cyclobutylpiperazin-1-yl)-7-hexyl-6,7,8,9-tetrahydro-5H-pyrimido[4,5-d]azepine] | ≥ 90% |
| CCN(CC)CCCN1CCN(c2ncnc3c2CCN(Cc2ccccc2)C3)CC1 [Compound 20, 3-[4-(7-benzyl-5,6,7,8-tetrahydropyrido[3,4-d]pyrimidin-4-yl)piperazin-1-yl]-N,N-diethylpropan-1-amine] | ≥ 90% |
| Cc1cc(CN2CCc3ncnc(N4CCN(C5CCC5)CC4)c3CC2)n(C)n1 [Compound 156, 4-(4-cyclobutylpiperazin-1-yl)-7-[(1,3-dimethyl-1H-pyrazol-5-yl)methyl]-6,7,8,9-tetrahydro-5H-pyrimido[4,5-d]azepine] | ≥ 90% |
| CC(C1CC1)N1CCc2c(ncnc2N2CCN(C3CCC3)CC2)C1 (stereo not shown) [Compound 124, 4-(4-cyclobutylpiperazin-1-yl)-7-(1-cyclopropylethyl)-5,6,7,8-tetrahydropyrido[3,4-d]pyrimidine] | ≥ 90% |
| CC(c1cccc(F)c1)N1CCc2c(ncnc2N2CCN(C3CCC3)CC2)C1 (stereo not shown) [Compound 103, 4-(4-cyclobutylpiperazin-1-yl)-7-[1-(3-fluorophenyl)ethyl]-5,6,7,8-tetrahydropyrido[3,4-d]pyrimidine] | ≥ 90% |
| Cc1ccc(CN2CCc3c(ncnc3N3CCN(C4CCC4)CC3)C2)cc1C [Compound 91, 4-(4-cyclobutylpiperazin-1-yl)-7-(3,4-dimethylbenzyl)-5,6,7,8-tetrahydropyrido[3,4-d]pyrimidine] | ≥ 90% |
| COc1ccccc1CN1CCc2c(ncnc2N2CCN(C3CCC3)CC2)C1 [Compound 78, 4-(4-cyclobutylpiperazin-1-yl)-7-(2-methoxybenzyl)-5,6,7,8-tetrahydropyrido[3,4-d]pyrimidine] | ≥ 90% |
| CCCN1CCc2nc(N3CCN(C4CCC4)CC3)ncc2C1 [Compound 627, 2-(4-cyclobutylpiperazin-1-yl)-6-propyl-5,6,7,8-tetrahydropyrido[4,3-d]pyrimidine] | ≥ 90% |
